The source of these data is PubChem BioAssay (NCI).

SMILES strings stand for the structures.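 Values below derive from 48-hour exposures of cells grown in 96-well plates, with endpoints linearly interpolated between the two concentrations bracketing the appropriate inhibition level. GI50 = concentration required for 50% inhibition of growth. TGI marks complete inhibition of growth.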

Some test systems named below: MDA-MB-231 breast; COLO 205 colon; UACC-62 melanoma; SW-620 colon; T-47D breast; HCT-15 colon; NCI-H226 lung; HOP-92 NSCLC; LOX IMVI melanoma; NCI-H522 lung.
Holding throughout (assay): NCI anticancer screen, dose series, 48 h

Regarding `CCCCCCCC(=O)OCC(=O)[C@]1(O)Cc2c(O)c3c(c(O)c2[C@@H](OC2CC(N)C(O)C(C)O2)C1)C(=O)c1c(OC)cccc1C3=O` (stereo partly drawn), the GI50 with MDA-MB-231 breast is 0.578 µM; with COLO 205 colon, 0.0812 µM; with UACC-62 melanoma it was 0.033 µM; in the test on SW-620 colon, 0.0403 µM; with T-47D breast, 0.0512 µM; in the test on HCT-15 colon, 0.703 µM. Moreover, the TGI is 2.17 µM in the test on MDA-MB-231 breast; 0.778 µM in the test on COLO 205 colon; 0.494 µM in the test on UACC-62 melanoma; 1.15 µM with SW-620 colon; 1.2 µM with T-47D breast; 2.14 µM in the test on HCT-15 colon.
As for `O=C(N/N=C/c1cc(Cl)cc(Cl)c1[O-])c1ccccc1.O=C(N/N=C/c1cc(Cl)cc(Cl)c1[O-])c1ccccc1.[Co+2]`, the GI50 was 42.1 µM with COLO 205 colon; 12.2 µM with UACC-62 melanoma; 24.9 µM in the test with SW-620 colon; 26.5 µM with NCI-H226 lung; 5.71 µM with HOP-92 NSCLC; 7.22 µM with HCT-15 colon. The GI50 in the test with LOX IMVI melanoma was 9.19 µM. Also, the TGI is above 100 µM in the test with COLO 205 colon; 51.6 µM in the test with UACC-62 melanoma; above 100 µM in the test with SW-620 colon; 92.2 µM in the test on NCI-H226 lung; 46.9 µM with HOP-92 NSCLC; above 100 µM in the test with HCT-15 colon. In the test with LOX IMVI melanoma, the TGI is above 100 µM.
Turning to `CCOC(=O)C(CNc1ccc(O)cc1)NC(=O)c1ccccc1` (stereo not drawn), the TGI with COLO 205 colon is above 100 µM; in the test on UACC-62 melanoma, above 95 µM; in the test with SW-620 colon, above 100 µM; with NCI-H226 lung, above 100 µM; in the test on NCI-H522 lung, above 100 µM; in the test with HOP-92 NSCLC it was above 100 µM. In addition, the TGI in the test with HCT-15 colon and in the test with LOX IMVI melanoma was above 100 µM throughout.
For the compound `COc1cccc(C2C3=C(COC3=O)N(CCO)c3cc4c(cc32)OCO4)c1` (stereo not drawn), the GI50 was 1.28 µM in the test on MDA-MB-231 breast; 0.191 µM in the test with COLO 205 colon; 0.229 µM in the test on SW-620 colon; 23.2 µM in the test with NCI-H226 lung; 0.051 µM in the test on NCI-H522 lung; 0.263 µM in the test on T-47D breast. Also, the GI50 was 1.02 µM in the test on HCT-15 colon and 0.451 µM in the test on LOX IMVI melanoma. Besides, the TGI in the test on MDA-MB-231 breast was 45.8 µM; in the test on COLO 205 colon, 0.854 µM; with UACC-62 melanoma it was above 50 µM; in the test with SW-620 colon, above 50 µM; in the test on NCI-H226 lung it was above 50 µM; in the test on NCI-H522 lung it was 0.187 µM. Also, the TGI in the test on T-47D breast, with HCT-15 colon and in the test with LOX IMVI melanoma was above 50 µM each time.
In the case of `N#Cc1ccc2cc3c(cc2c1)OCO3`, the TGI in the test with COLO 205 colon, in the test on UACC-62 melanoma, in the test on NCI-H226 lung, in the test with NCI-H522 lung, with HOP-92 NSCLC and with HCT-15 colon was above 100 µM in each case. Moreover, in the test on LOX IMVI melanoma, the TGI is above 100 µM.
`C/C=C/COC(=O)CO[N+](=O)[O-]`: the TGI in the test with COLO 205 colon, in the test with SW-620 colon, with NCI-H226 lung, in the test with NCI-H522 lung, in the test on HOP-92 NSCLC and in the test on HCT-15 colon was above 100 µM each time. For the same compound, the TGI in the test on LOX IMVI melanoma is above 100 µM.
Regarding `CN(/N=C/c1cccc2cccnc12)c1c([N+](=O)[O-])cc([N+](=O)[O-])cc1[N+](=O)[O-]`, the TGI in the test with COLO 205 colon, in the test with UACC-62 melanoma, in the test with SW-620 colon, in the test with NCI-H226 lung, in the test with HOP-92 NSCLC and with HCT-15 colon was above 100 µM in each case. This compound registered a TGI in the test with LOX IMVI melanoma above 100 µM.
Take `O=C(/C=C/C12c3ccccc3C(c3ccccc31)C1C(=O)NC(=O)C12)c1ccc(Cl)cc1` (stereo not drawn): the GI50 in the test on MDA-MB-231 breast is 1.88 µM; in the test on COLO 205 colon it was 1.91 µM; in the test on UACC-62 melanoma, 1.4 µM; with SW-620 colon it was 1.89 µM; in the test on NCI-H226 lung it was 1.92 µM; in the test with NCI-H522 lung, 1.46 µM. Also, the GI50 in the test with HOP-92 NSCLC is 1.32 µM; with HCT-15 colon it was 1.47 µM; in the test on LOX IMVI melanoma, 1.6 µM. The TGI turned out to be 4.3 µM with MDA-MB-231 breast; 3.77 µM with COLO 205 colon; 2.77 µM in the test on UACC-62 melanoma; 4.26 µM with SW-620 colon; 5 µM with NCI-H226 lung; 3.3 µM with NCI-H522 lung. For the same compound, the TGI stood at 2.86 µM in the test with HOP-92 NSCLC, 4.07 µM in the test with HCT-15 colon and 3 µM in the test on LOX IMVI melanoma.
As to `Cc1ccc(C)c(NC(=O)CC2SC(=Nc3ccccc3Cl)NC2=O)c1` (stereo not drawn), the TGI in the test on COLO 205 colon was above 100 µM; with UACC-62 melanoma, above 100 µM; with SW-620 colon, above 100 µM; in the test on NCI-H226 lung, above 100 µM; with NCI-H522 lung, 96.5 µM; in the test on HOP-92 NSCLC it was above 100 µM. In the test on HCT-15 colon, this compound gave a TGI above 100 µM.
With `CC1=C[C@H]2C[C@H](C)[C@H]3CC[C@H](C)[C@]4(C1)C(=O)C(O)=C(C)C(=O)[C@@]324`, the GI50 was 20.8 µM with MDA-MB-231 breast; 19 µM with COLO 205 colon; 22 µM in the test on UACC-62 melanoma; 31.5 µM with SW-620 colon; 33 µM with NCI-H226 lung; 19.8 µM with NCI-H522 lung. Further, the GI50 in the test on T-47D breast was 19.1 µM; in the test on HCT-15 colon, 32.7 µM; in the test on LOX IMVI melanoma, 22.1 µM. The TGI in the test on MDA-MB-231 breast is 65.7 µM; in the test with COLO 205 colon, 48.9 µM; in the test with UACC-62 melanoma it was 80.2 µM; with SW-620 colon it was above 100 µM; in the test on NCI-H226 lung it was above 100 µM; in the test with NCI-H522 lung, 83.4 µM. The TGI was above 100 µM in the test with T-47D breast, above 100 µM in the test on HCT-15 colon and 51.1 µM in the test on LOX IMVI melanoma.
Take `COC1OC(C)C2OC(C)(C)OC2C1OC(C)=O` (stereo not drawn): the TGI in the test on COLO 205 colon, with UACC-62 melanoma, with SW-620 colon, with NCI-H226 lung, with NCI-H522 lung and with HOP-92 NSCLC was above 100 µM each time. For the same compound, the TGI in the test on HCT-15 colon and in the test on LOX IMVI melanoma was above 100 µM each time.
